# Assay results published in patent US20110009351A1, “SCREENING ASSAY TO IDENTIFY CORRECTORS OF PROTEIN TRAFFICKING DEFECTS” (Traffick Therepeutics Inc., priority 2007, published 2011).
# Counter-ions that a name gives are not always drawn.
# How the values were obtained:
# [1] = clinical use; cited from earlier work
# ΔF508-CFTR [2] = biological target: T1, ΔF508-CFTR (Homo sapiens, UniProt P13569, DEL508-508); assay: immunoblot and densitometry of mature band C, BHK cells expressing ΔF508-CFTR; assay type: cell-based; design: which was then ligated into full length pNUT-CFTR linearized using Hpa1 and Pml1; expressed in transfected cells; conditions: 10 μM, 24 h
# T1 sequence (P13569 with tags, fused parts or gaps DEL508-508): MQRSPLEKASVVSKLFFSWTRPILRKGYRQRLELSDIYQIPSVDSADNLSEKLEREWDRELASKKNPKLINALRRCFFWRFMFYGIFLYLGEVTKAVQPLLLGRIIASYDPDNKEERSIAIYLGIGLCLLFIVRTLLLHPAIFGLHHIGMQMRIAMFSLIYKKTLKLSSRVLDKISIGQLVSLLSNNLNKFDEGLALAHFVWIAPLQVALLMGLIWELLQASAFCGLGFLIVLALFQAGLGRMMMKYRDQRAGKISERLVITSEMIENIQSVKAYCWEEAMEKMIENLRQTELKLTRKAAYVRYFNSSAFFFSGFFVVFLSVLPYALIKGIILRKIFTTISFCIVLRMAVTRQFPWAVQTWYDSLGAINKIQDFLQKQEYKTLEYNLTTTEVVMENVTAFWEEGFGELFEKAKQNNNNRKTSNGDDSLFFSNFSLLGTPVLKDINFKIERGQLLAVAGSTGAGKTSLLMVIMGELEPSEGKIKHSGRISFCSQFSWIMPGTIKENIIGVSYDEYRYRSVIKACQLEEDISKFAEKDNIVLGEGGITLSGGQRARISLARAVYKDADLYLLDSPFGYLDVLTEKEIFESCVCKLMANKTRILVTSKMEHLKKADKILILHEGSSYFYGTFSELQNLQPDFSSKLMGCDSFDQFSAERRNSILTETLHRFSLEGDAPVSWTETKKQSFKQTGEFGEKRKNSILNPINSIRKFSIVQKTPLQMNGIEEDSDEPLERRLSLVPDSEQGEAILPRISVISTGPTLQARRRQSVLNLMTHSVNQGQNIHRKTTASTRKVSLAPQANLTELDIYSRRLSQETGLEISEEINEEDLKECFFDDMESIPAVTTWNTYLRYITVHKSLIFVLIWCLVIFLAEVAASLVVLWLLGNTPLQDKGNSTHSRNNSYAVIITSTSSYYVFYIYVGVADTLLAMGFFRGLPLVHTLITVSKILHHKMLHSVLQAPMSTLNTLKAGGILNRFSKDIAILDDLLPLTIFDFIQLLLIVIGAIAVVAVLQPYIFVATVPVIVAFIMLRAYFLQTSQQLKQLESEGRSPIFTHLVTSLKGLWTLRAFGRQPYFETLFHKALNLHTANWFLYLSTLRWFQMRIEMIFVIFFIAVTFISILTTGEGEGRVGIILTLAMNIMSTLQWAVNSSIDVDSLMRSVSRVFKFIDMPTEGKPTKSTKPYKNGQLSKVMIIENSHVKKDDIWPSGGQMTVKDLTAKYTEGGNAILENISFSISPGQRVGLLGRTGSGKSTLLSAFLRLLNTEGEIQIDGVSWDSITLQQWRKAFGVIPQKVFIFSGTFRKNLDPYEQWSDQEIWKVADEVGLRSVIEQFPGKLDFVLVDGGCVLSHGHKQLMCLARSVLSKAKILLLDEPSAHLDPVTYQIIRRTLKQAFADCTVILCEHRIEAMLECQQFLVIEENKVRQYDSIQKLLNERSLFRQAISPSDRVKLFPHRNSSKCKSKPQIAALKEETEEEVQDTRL
# Protocol: Cell lysates were quantitated by Bradford assay (BioRad) and separated by SDS-PAGE (6% polyacrylamide gels) and analyzed by Western blotting. Western blots were blocked using 5% skimmed milk in PBS, then probed overnight at 4° C. with a primary anti-CFTR antibody at a dilution of 1:1000 monoclonal mouse antibody (clone M3A7, Chemicon). The blots were washed four times in PBS before the addition of the secondary HRP-conjugated anti-mouse antibody, at a dilution of 1:5000 (Amersham) for one hour at room temperature. The blots were washed five times in PBS and probed for chemiluminescence (Pierce). All samples were run with equal protein loading as determined using the Bradford assay (Biorad). Densitometry of the immunoblots was performed using the ImageJ program (National Institutes of Health).
# Total protein was quantified in cell lysates using the Bradford assay (BioRad, Hercules, Calif.), separated using SDS-PAGE (6% polyacrylamide gels), and analyzed by Western blotting as described previously (Robert et al., 2007). Western blots were blocked with 5% skimmed milk in PBS and probed overnight at 4° C. with a monoclonal primary anti-CFTR antibody (clone M3A7, Chemicon, Temecula, Calif.) diluted 1:1000. The blots were washed four times in PBS before adding the secondary HRP-conjugated anti-mouse antibody at a dilution of 1:5000 (Amersham, Piscataway, N.J.) for one hour at room temperature, then washed again five times in PBS and visualized using chemiluminescence (Pierce, Rockford, Ill.). The relative intensity of each CFTR glycoform (band B or band C) was estimated by densitometry using the ImageJ software and reported as a percentage of the total CFTR in the same lane (i.e. B+C).
# ΔF508-CFTR [3] = biological target: T1, ΔF508-CFTR; assay: iodide efflux assay in BHK cells expressing ΔF508-CFTR; assay type: cell-based; design: which was then ligated into full length pNUT-CFTR linearized using Hpa1 and Pml1; expressed in transfected cells; conditions: 24 h
# Protocol: Experiments were performed by hand or with a robotic liquid handling system (BioRobot 8000, Qiagen, USA) using Qiagen 4.1 software. Cells were cultured in 24-well plates until they reached confluence in order to perform parallel experiments and comparison analysis. After treatment (or not) with a test compound, medium in each well was replaced with 1 ml of iodide loading buffer (in mM: 136 NaI, 3 KNO3, 2 Ca(NO3)2, 11 glucose and 20 Hepes pH 7.4) for 1 hour at 37° C. to permit the I′ to reach equilibrium. At the beginning of each experiment, the loading buffer was removed by aspiration and cells were washed eight times with efflux buffer (same as loading buffer except that NaI was replaced with 136 mM NaNO3) to remove extracellular I^− in each well. The loss of intracellular I^− was determined by removing the medium and replacing it with fresh efflux buffer every 1 min for up to 11 min. The first four aliquots were recovered at 1-minute intervals in an empty 24-well plate and used to establish a stable baseline in efflux buffer alone. A stimulation buffer (efflux buffer containing 50 μM genistein+10 μM forskolin) was then added and sampling continued with replacement by stimulation buffer. The iodide concentration of each aliquot was determined using an iodide-sensitive electrode (Orion Research Inc., Boston, Mass., USA or Ecomet) and converted to iodide content (i.e. the amount of iodide released during the 1 min interval). Curves were constructed by plotting concentration versus time. Data are presented as means±SEM.
# Iodide effluxes were performed using a robotic liquid handling system (BioRobot 8000, Qiagen, Valencia, Calif.) and Qiagen 4.1 software. Cells were cultured to confluence in 24-well plates. After treatment (or not) with a test compound, the medium in each well was replaced with 1 ml of iodide loading buffer: 136 mM NaI, 3 mM KNO3, 2 mM Ca(NO3)2, 11 mM glucose, 20 mM Hepes, pH 7.4 with NaOH) and incubated for 1 h at 37° C. At the beginning of each experiment, the loading buffer was removed by aspiration and cells were washed eight times with 300 μl efflux buffer (same as loading buffer except that NaI was replaced with 136 mM NaNO3) to remove extracellular I^−. Efflux was measured by replacing the medium with 300 μl fresh efflux buffer at 1 min intervals for up to 11 min. The first four aliquots were used to establish a stable baseline, then buffer containing 10 μM forskolin+50 μM genistein was used to stimulate CFTR activity. Iodide concentration was measured in each aliquot (300 μl) using an iodide-sensitive electrode (Orion Research Inc., Boston, Mass.). Relative iodide efflux rate was calculated using the difference between maximum (peak) iodide concentration during stimulation and minimum iodide concentration before stimulation (in μM/min). […]
# ΔF508-CFTR [4] = biological target: T2, ΔF508-CFTR (Mus musculus, UniProt P26361, DEL508-508); assay: ex vivo treatment of ileum from ΔF508-CFTR mice, Isc response to forskolin+genistein; conditions: 20 μM, 5-6 h ex vivo
# T2 construct: from tissue; host or cells: ileal mucosa of homozygous ΔF508 mice (A11 ex vivo, A12 after gavage); salivary secretion in the living mouse (A13)
# T2 sequence (P26361 with tags, fused parts or gaps DEL508-508): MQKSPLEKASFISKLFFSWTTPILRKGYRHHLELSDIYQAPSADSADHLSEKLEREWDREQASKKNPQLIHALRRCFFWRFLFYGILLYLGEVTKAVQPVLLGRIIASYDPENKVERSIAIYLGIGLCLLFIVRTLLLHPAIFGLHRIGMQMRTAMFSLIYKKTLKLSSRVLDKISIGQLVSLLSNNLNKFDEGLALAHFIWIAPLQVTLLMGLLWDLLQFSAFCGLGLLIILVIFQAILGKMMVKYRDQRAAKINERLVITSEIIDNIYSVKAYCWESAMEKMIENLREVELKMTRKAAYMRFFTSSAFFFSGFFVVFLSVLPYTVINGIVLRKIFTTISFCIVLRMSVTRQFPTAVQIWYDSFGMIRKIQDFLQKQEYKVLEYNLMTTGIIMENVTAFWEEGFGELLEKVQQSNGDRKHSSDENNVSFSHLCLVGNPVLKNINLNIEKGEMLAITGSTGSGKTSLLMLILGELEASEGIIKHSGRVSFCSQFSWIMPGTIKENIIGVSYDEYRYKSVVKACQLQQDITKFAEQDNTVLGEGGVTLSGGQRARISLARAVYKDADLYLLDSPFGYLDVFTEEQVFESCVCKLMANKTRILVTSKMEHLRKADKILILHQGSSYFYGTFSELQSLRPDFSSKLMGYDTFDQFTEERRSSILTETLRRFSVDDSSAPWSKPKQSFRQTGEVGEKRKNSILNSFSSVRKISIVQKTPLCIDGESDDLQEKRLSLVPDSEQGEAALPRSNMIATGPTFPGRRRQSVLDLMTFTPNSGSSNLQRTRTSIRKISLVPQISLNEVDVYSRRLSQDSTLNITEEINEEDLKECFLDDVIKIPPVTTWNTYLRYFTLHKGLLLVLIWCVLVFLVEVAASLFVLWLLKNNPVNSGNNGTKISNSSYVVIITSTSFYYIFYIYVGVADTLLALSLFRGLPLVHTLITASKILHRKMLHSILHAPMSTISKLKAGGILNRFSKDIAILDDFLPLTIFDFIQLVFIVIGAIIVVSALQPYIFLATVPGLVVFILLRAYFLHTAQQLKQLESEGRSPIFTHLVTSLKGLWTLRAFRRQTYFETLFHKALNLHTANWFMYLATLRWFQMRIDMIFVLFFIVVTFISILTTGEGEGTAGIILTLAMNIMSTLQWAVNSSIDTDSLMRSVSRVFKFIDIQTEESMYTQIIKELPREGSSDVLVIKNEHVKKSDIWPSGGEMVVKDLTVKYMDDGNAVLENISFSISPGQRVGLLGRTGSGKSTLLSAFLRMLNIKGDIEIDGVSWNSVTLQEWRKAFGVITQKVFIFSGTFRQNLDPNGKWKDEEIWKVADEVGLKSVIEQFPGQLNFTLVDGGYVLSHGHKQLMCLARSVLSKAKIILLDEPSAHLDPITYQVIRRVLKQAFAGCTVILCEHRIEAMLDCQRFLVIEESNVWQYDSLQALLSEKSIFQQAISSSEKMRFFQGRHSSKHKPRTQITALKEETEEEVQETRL
# Protocol: Glafenine was tested ex vivo and in vivo using ileum from homozygous Δ508-CFTR mice (CFTR^tm1 Eur; van Doorninck et al., 1995) and wild-type littermates controls. Mice were 14-17 weeks old, weighed 24-30 g, and were genotyped by standard PCR methods using tail DNA. The mice were kept in a pathogen-free environment in the animal facility at McGill University and fed a high protein diet (SRM-A, Hope Farms, Woerden, NL) modified to contain pork instead of beef. All procedures followed Canadian Institutes of Health Research (CIHR) guidlines and were approved by the faculty Animal Care Committee. For ex vivo experiments, ileal mucosa was stripped of muscle and incubated in William's E-Glutamax medium supplemented with insulin (10 μg/ml), 100 U/ml penicillin, and 100 μg/ml streptomycin and dexamethasone (1.6 ng/ml) containing 0.1% DMSO (control) or DMSO containing glafenine for 5 h. The tissue was then rinsed repeatedly and mounted in Ussing chambers to measure […]. For in vivo experiments, mice were feed once per day by gavage with saline containing glafenine (50 mg/kg) or vehicle alone (0.1% DMSO). After 2 days of glafenine treatment the mice were euthanized under CO2, the intestine was dissected and the short circuit current was measured as described above.
structure (smiles),measurement,setting,value
"O=C(OCC(O)CO)c1ccccc1Nc1ccnc2cc(Cl)ccc12 (stereo not shown) [Glafenine hydrochloride, 2-[(7-chloro-4-quinolinyl)amino]benzoic acid 2,3-dihydroxypropyl ester]",concentration achieved clinically in plasma,[1],10 µM
same,band C glycoform as share of the CFTR signal (band B+band C),ΔF508-CFTR [2],approximately 38%
same,increase of band C glycoform compared to untreated control,ΔF508-CFTR [2],28.4%
same,increase of cAMP-stimulated iodide efflux response,"ΔF508-CFTR [3]; 10 μM, 10 μM forskolin+50 μM genistein, versus vehicle",3.3 fold
same,concentration required for significant restoration of ΔF508-CFTR function,"ΔF508-CFTR [3]; iodide efflux, BHK",1 to 10 µM
same,forskolin+genistein-stimulated current versus vehicle alone,ΔF508-CFTR [4],~12 fold
same,restoration of the secretory response observed in wild-type mice,ΔF508-CFTR [4],~46% and ≈ 46%
